Results from US8858968B2, “Use of tyrosine-arginine dipeptide and niacinamide as substance P antagonist” (L'Oreal, priority 2005, dated 2014).
Ends that are not written are not given here.

Assays:
[1] = test system: human skin kept under survival conditions; experiment: Histological evaluation of the average surface area of the capillaries in human skin kept under survival conditions, stimulated with substance P; format: cell-based; settings: for effect on surface area / dilatation of the dermal capillaries (in words): compared with substance P-treated skin and control skin; for Percentage of dilated dermal capillaries: substance P 10 μM in culture medium, niacinamide 0.5%, dipeptide 0.1% (b140 prints the reverse), mean +/− spread
Method: The activity of each of the active agents and of the combination thereof is evaluated in a model of human skin kept under survival conditions. After several hours of re-equilibration of the skin with culture medium (antibiotic+SVF), the culture medium is renewed and substance P at 10 (M, with or without each of the active agents or the combination thereof, is (are) added to the culture medium. […] Morphometric analysis of the surface area (μm^2) occupied by the lumen of the vessels is carried out by microscopic observation from sections: the skin fragments are fixed in Bouin's solution and embedded in paraffin and then stained with haemalun-eosine. The vascular dilatation is evaluated by counting the number of dilated vessels over the entire histological section (16 fields at 40×magnification). This analysis makes it possible to determine the average surface area (μm^2) occupied by the vessels in the dermis.

[2] = test system: human skin kept under survival conditions; experiment: Histological evaluation of dermal oedema (semi-quantitative score) on the skin sections of Example 1; format: cell-based; settings: for effect on dermal oedema (in words): compared with substance P-stimulated skin and control skin; for Dermal oedema score (0-3): human skin explant, substance P 10 μM, niacinamide 0.5%, dipeptide 0.1% (b140 prints the reverse), mean +/− spread
Method: The activity of each of the active agents and of the combination thereof is evaluated in a model of human skin kept under survival conditions. […] Using the sections prepared in Example 1, the oedema is evaluated by means of semi-quantitative scores: • score 0: no oedema • score 1: very slight oedema • score 2: moderate oedema • score 3: considerable oedema

For `NC(=O)c1cccnc1` [niacinamide, pyridine-3-carboxamide], the “effect on surface area / dilatation of the dermal capillaries (in words)” value [1] was “back to a state corresponding to the control”, the “Percentage of dilated dermal capillaries” value ([1]; human skin explant) was 108 +/− 27.6 and the “effect on dermal oedema (in words)” value [2] was “back to a state corresponding to the control”. For the same compound, the “Dermal oedema score (0-3)” value [2] was 1.03 +/− 0.64.
In the case of “N-acetyl-tyrosine-arginine-decahexyl ester [dipeptide]”, the “effect on surface area / dilatation of the dermal capillaries (in words)” value [1] is reported as “back to a state corresponding to the control”, the “Percentage of dilated dermal capillaries” value ([1]; human skin explant) is reported as 103.16 +/− 34 and the “effect on dermal oedema (in words)” value [2] is reported as “back to a state corresponding to the control”. For the same compound, the “Dermal oedema score (0-3)” value [2] was 1 +/− 0.6.
“substance P: polypeptide (undecapeptide) produced and released by a nerve ending; used at 10 μM as stimulus (RPKPQQFFGLM; ends and bridges not checked; UniProt P20366 58-68, looked up)” was tested, and the “Percentage of dilated dermal capillaries” value ([1]; human skin explant) was 161.6 +/− 56.6, the “increase in the surface area compared with the normal skin” value ([1]; substance P at 10 μM) was 63% and the “average surface area occupied by the vessels in the dermis” value ([1]; substance P at 10 μM, human skin explant) was 161.6+/−56.6 μm^2. The “Dermal oedema score (0-3)” value [2] was 1.9 +/− 0.7, the “increase in the oedema score” value ([2]; treatment with substance P versus control skin) was 121% and the oedema score ([2]; treatment with substance P, score 0-3) was 1.9+/−0.64.
